In ChEMBL document CHEMBL1133164, “N-[[(5-methyl-3-phenylisoxazol-4-yl)-phenyl]sulfonyl]propanamide, sodium salt, parecoxib sodium: A potent and selective inhibitor of COX-2 for parenteral administration” (J Med Chem, 2000):
Each block holds one compound with its values, some of them ahead of it.

Experiments:
Rattus norvegicus [1] = species: Rattus norvegicus; test: Compound was tested for the antiinflammatory activity in rat adjuvant arthritis model; type: functional
[2] = In vivo mean elimination half life in the female dogs by intravenous administration of the compound; type: ADME, organism-based, Canis lupus familiaris; settings: dog
Rattus norvegicus [3] = species: Rattus norvegicus; test: Compound was tested for the chronic antiinflammatory activity in rat adjuvant arthritis model; type: functional
Rattus norvegicus [4] = test: Compound was tested for the percentage inhibition at 0.3 mg/kg in carrageenan air pouch assay.; type: functional
[5] = In vivo mean elimination half life in the male rat by intravenous administration of the compound; type: ADME, organism-based
[6] = In vivo mean elimination half life in the cynomolgus monkeys by intravenous administration of the compound; type: ADME, organism-based, Macaca fascicularis; settings: cynomolgus monkey
Rattus norvegicus [7] = test: Compound was tested for complete blockade of carrageenan induced hyperalgesia within 1 hr after iv administration; type: functional
[8] = molecular target: T1, Prostaglandin G/H synthase 2 (Homo sapiens, UniProt P35354)
T1 sequence (P35354 whole entry): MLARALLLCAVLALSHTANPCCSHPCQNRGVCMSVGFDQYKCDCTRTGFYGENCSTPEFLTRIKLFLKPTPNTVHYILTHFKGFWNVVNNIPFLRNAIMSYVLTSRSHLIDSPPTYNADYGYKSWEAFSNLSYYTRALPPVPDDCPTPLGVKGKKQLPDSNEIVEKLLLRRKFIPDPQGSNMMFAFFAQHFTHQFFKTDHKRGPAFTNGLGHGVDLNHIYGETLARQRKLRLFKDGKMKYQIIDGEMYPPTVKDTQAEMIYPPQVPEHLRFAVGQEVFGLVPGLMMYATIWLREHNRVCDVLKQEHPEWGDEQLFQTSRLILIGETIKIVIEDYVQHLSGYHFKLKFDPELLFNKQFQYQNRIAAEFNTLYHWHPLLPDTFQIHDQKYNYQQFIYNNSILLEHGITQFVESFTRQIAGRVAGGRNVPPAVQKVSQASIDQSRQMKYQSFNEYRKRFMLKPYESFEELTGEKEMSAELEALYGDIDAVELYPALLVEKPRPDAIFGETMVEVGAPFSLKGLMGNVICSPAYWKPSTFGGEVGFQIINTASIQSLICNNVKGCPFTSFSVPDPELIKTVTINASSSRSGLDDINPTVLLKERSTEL
Description: Compound was tested for its inhibitory activity against recombinant human Prostaglandin G/H synthase 2

[9] = molecular target: Prostaglandin G/H synthase 1 (Homo sapiens, UniProt P23219); test: Compound was tested for its inhibitory activity against recombinant human Prostaglandin G/H synthase 1
Sequence of Prostaglandin G/H synthase 1 (P23219 whole entry): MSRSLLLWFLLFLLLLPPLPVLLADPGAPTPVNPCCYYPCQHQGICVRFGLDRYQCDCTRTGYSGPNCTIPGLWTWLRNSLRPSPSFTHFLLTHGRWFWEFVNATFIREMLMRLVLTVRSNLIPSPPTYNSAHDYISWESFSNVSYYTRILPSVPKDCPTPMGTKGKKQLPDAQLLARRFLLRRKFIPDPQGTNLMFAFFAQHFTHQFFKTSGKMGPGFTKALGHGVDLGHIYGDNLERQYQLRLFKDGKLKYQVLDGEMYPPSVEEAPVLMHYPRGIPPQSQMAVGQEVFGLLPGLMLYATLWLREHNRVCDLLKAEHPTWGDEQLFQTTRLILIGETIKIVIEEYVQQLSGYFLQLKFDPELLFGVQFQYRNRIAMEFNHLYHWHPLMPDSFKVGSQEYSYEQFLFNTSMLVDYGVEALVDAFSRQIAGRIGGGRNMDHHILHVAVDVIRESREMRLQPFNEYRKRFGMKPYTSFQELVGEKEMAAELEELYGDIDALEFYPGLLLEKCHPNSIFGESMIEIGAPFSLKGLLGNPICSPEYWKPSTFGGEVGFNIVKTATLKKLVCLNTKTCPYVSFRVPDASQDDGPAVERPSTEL

Rattus norvegicus [10] = species: Rattus norvegicus; test: Compound was tested for the antiinflammatory activity in carrageenan air pouch model of inflammation; type: functional

SMILES: Cc1onc(-c2ccccc2)c1-c1ccc(S(N)(=O)=O)cc1 [VALDECOXIB]
ED50 (Rattus norvegicus [1]): 0.08 mg/kg

half-life [2]: 33.2 min
half-life [5]: 8.1 min
half-life [6]: 72.6 min
SMILES: CCC(=O)[N-]S(=O)(=O)c1ccc(-c2c(-c3ccccc3)noc2C)cc1.[Na+] [PARECOXIB SODIUM]
ED50 (Rattus norvegicus [3]): 0.08 mg/kg
inhibition in vivo at 0.3 mg/kg (Rattus norvegicus [4]): 98%
ED50 (Rattus norvegicus [7]): 5 mg/kg

IC50 [8]: 20 µM
IC50 [9]: 100 µM
SMILES: CC(=O)[N-]S(=O)(=O)c1ccc(-c2c(-c3ccccc3)noc2C)cc1.[Na+]
ED50 (Rattus norvegicus [10]): 0.5 mg/kg
